These results are taken from US20220117949A1, “LTA4H INHIBITORS FOR THE TREATMENT OF HIDRADENITIS SUPPURATIVA” (NOVARTIS AG, priority 2019, published 2022).

For data set [1], the system named is LTB4 biosynthesis in lesional skin biopsies of HS patients. As to the kind of experiment: LTB4 biosynthesis in ionophore-stimulated skin biopsies of HS patients (LC-MS/MS). In kind it is cell-based, human. As to conditions: 5 uM inhibitor 2 h, then 2 h 10 ug/mL ionophore. As to the method: Frozen human skin biopsies from healthy skin or discard HS lesions (on average 500 mg) were pulverized using mechanical force (Covaris) and homogenized in 4 mL of methanol containing deuterium labelled internal standards (ISTDs) using a bead-beating device (2×20 sec cycles of 5000 rpm, Precellys) maintained at low temperature. Then, samples were kept at −20° C./45 min to allow for protein precipitation and centrifuged at 13000 rpm for 10 min at 4° C. The supernatants were then evaporated (Genevac) until complete dryness and reconstituted in 70 μL of methanol:water (50%/50%; v/v) followed by injection in the LC-MS/MS system. Calibration curves were freshly prepared by serial dilution of pure standards in methanol:water (50%/50%, v/v) containing ISTDs and quantitation was done by comparing metabolite to ISTD peak area ratios in samples to that of calibrators.
Two analytical platforms were employed for data acquision depending on instrument availability: 1) Waters H class UPLC system coupled to a Waters XevoTQS triple quadrupole mass (QQQ) spectrometer and 2) a Dionex Ultimate 3000RS UPLC coupled to a Sciex6500+ QQQ. Separation of lipids was achieved using reverse-phase columns ACQUITY UPLC BEH C18 1.7 μm, 2.1×50 mm and CORTECS UPLC C18 1.6 μm, 2.1×50 mm heated at 40° C., respectively. The flow rate was set to 0.180 mL/min and the mobile phase consisted of water-acetic acid (99.99/0.01; v/v) (A) and methanol-acetonitrile-acetic acid (B) (50/50/0.01; v/v/v). The eluent gradient was maintained at 45% of B for 2 min, follow by 45%-65% of B during 2-16 min, from 65%-100% during 16-19 min and 100% of B from 19-22 min. From 23-30 min the column was re-equilibrated with initial conditions. Ionization was performed using an ESI source operated in negative ion mode. Fragmentation was tuned for each compound individually.
. Skin biopsies were then harvested, lipids extracted and analyzed for generation of LTB4 by LC-MS/MS as described above. Stimulated skin biopsies of HS lesions generated a large amount of the lipid mediator LTB4. […]. (FIGS. 10 and 11)
Lesional skin biopsies of HS patients were left untreated or fully stimulated with ionophore to induce LTB4 biosynthesis in the presence or absence of a LTA4H inhibitor
LTB4 quantities are given in fmol/mg tissue. Shown are representative results obtained with one donor per compound out of several tested.

The nature of data set [2]: First in human trial (SAD/MAD): safety and tolerability in healthy subjects. On the procedure: (§1) The study consisted of a part 1, single ascending dose (SAD) and a part 2 multiple ascending dose (MAD).
(§2) Part 1 was a randomized, subject-blinded and Investigator-partial-blinded, placebo-controlled, single ascending oral dose study.
(§3) Cohort 1: multiple once daily (qd) oral dose of 5 mg or matching placebo Cohort 2: multiple once daily (qd) oral dose of 15 mg or matching placebo Cohort 3: multiple oral daily dose of 20 mg or matching placebo administered twice daily (bid) Cohort 4: multiple oral daily dose of 40 mg or matching placebo administered twice daily (bid) Cohort 5: multiple oral daily dose of 80 mg or matching placebo administered twice daily (bid) Part 2 Multiple Ascending Dose Design (qd)—Overview of the Study Part 2 Multiple Ascending Dose Design (Bid)—Overview of the Study

The nature of data set [3]: First in human trial Part 1 (SAD): plasma pharmacokinetics.
Text: as §1, §2

Data set [4] is described as follows: First in human trial Part 2 (MAD): plasma pharmacokinetics. On the procedure: as §1, §3
A further data set is described as follows: clinical. The following applies: for mean concentration in blister fluid: pre-dose on Day 9. From the text: In parts 1 and 2 of the clinical study (SAD and MAD), skin blisters were induced on the arm of subjects in selected cohorts.
(§4) Blister fluid samples were collected at Day 1 pre-dose and Day 2 pre-dose in SAD cohort 4 as well as Day 1 pre-dose and Day 9 predose in MAD cohort 2-5.

The subject of data set [5] is LTB4 in human skin blister fluids. Kind of data set: LTB4 in cantharidin induced skin blister fluid (FIH). In kind it is in vivo. As to conditions: 40 mg daily dose (20 mg BID). On the procedure: In parts 1 and 2 of the clinical study (SAD and MAD), skin blisters were induced on the arm of subjects in selected cohorts. For this 10 mm diameter filter paper discs humected with a solution of cantharidin (such as cantharone) were applied on the arm of the subject, inducing an epidermal blister, and the blister fluid was collected approximately 24 hours (+/−1 hr) after the application.
as §4
Blister fluid samples were received frozen on dry ice and stored at −70° C. or below until analysis. On the day of analysis, samples were taken out of the freezer and immediately extracted after Thawing.
90 μL of blister fluid (sample or QC sample) was enriched with 5 μL of internal standard solution IS-L-2 (deuterated Leukotrienes and lipoxin at 50 ng/mL) and vortexed in a micro centrifuge tube. 90 μL of methanol with 0.1% formic acid was added. This was followed by 5 minutes vortex mixing and 10 minutes sonication on ice. The samples were incubated at −20° C. in a freezer for 40 minutes. This was followed by centrifugation at 16,000 rpm (27,500×g) at 4° C. for 20 minutes. 160 μL of the supernatant was transferred onto Millipore 5 kDa MWCO filters. MWCO filters have previously been cleaned by centrifuging 500 μL methanol/water 1/1 thru the filters. […]

Data set [6] has as its system Leukotriene B4 (LTB4) in blood. As to the kind of experiment: Leukotriene B4 (LTB4) in human plasma of ex vivo stimulated whole blood (FIH PD biomarker, LC-MS/MS).
Protocol: Therefore, LTB4 concentrations were determined in plasma of ex-vivo stimulated whole blood by a LC-MS/MS method.
Ex-vivo stimulation was performed at the clinical site according to the following procedure: Whole blood (500 μL) were stimulated for 30 min using Calcium Ionophore A23187.
Human plasma was processed with organic precipitation followed by separation by reverse phase high performance liquid chromatography with tandem mass spectrometric detection.
AB Sciex QTrap 5500 MS/MS Turbo Spray Ion Drive negative ion mode.
Sample from each subject and time point was prepared and analyzed in three aliquots. Aliquot one and two contained plasma from ex-vivo stimulated whole blood, while aliquot three as negative control contained plasma from non-stimulated whole blood.
LTB4 concentration data were calculated as mean of concentration of aliquot one and two. Concentration of aliquot three was not be included in the calculation. The change from baseline and percent inhibition (percent of baseline) for each biomarker was calculated. Baseline was the mean of the Baseline and Day 1, −1 h measurements.
The mark [7] stands for this setting: 5 mg qd to 80 mg bid (16-fold per dosing interval).

For the compound `N[C@@H](CC(=O)O)Cn1nnc(-c2ccc(Oc3ccc(Cl)cc3)cc2)n1` [compound of embodiment 3D, (S)-3-amino-4-(5-(4-(4-chlorophenoxy)-phenyl)-2H-tetrazol-2-yl)butanoic acid], the “LTB4 generation by stimulated skin biopsies of HS lesions” value (from here on “LTB4 generation”) in data set [1] was “almost no LTB4”; in data set [1] (listed as Compound of embodiment 3D) it was “suppresses”.

As for `N[C@@H](CC(=O)O)Cn1nnc(-c2ccc(Oc3ncc(Cl)cc3F)cc2)n1` [compound of example 1, (S)-3-amino-4-(5-(4-((5-chloro-3-fluoropyridin-2-yl)oxy)phenyl)-2H-tetrazol-2-yl)butanoic acid], in data set [1], the “LTB4 generation” value is recorded as “almost no LTB4”. For the same compound, in data set [1] (listed as Compound of Example 1), the “LTB4 generation” value is listed as “suppresses”. The “findings in physical exam, vital signs or ECGs related to compound” value in data set [2] (SAD and MAD, healthy subjects) is recorded as “No significant findings”. For the same compound, the maximal tolerated dose result in data set [2] (SAD up to 200 mg total daily dose, MAD up to 80 mg BID for 12 days) is on record as “no maximal tolerated dose was established”. The “adverse events leading to study discontinuation” value in data set [2] (SAD up to 2 x 100 mg, MAD up to 80 mg BID for 12 days, healthy subjects) was “No adverse events led to study discontinuation”. Also, the tolerability result in data set [2] (doses up to 80 mg bid (160 mg daily dose) over 12 days, healthy subjects) was “well tolerated”. The “treated subjects with increases in lipase” value in data set [2] (one SAD 5 mg, two MAD 80 mg BID, asymptomatic, transient) is “Three”. The “amylase increase accompanying lipase increase” value in data set [2] (the three subjects with lipase elevations, mild) was ≤ 1.5 ULN. For the same compound, in data set [3] (5 mg to 2 times 100 mg), the “dose proportionality of AUClast over the whole dose range” value is recorded as “demonstrated”. Also, the “AUC0-24 h increase with dose” value in data set [3] (40-fold increase in daily dose (5 mg to 100 mg bid)) is reported as 75 fold. For the same compound, in data set [3] (SAD), the “increase in dose over which AUC0-24 h can be considered dose proportional” value is ≤ 2.57 fold and the “increase in dose over which Cmax can be considered dose proportional” value is reported as “up to 4.50 fold”. Also, the “Cmax increase with dose” value in data set [3] (dose increase from 5 to 100 mg (20-fold)) amounted to 21.7 fold. Besides, in data set [3] (human, in vivo, po), the time of peak concentration (Tmax) lay in the range of 1 to 1.5 h and the half-life lay in the range of 10.2 to 21.4 days. Also, in data set [4] (setting [7]), the “AUC on Day 12 (AUC0-12 h,ss bid; AUC0-24 h,ss qd) increase with dose” value is given as 20.9 fold and the “Cmax on Day 12 increase with dose” value turned out to be 17.9 fold. In addition, the “time to reach steady state exposure” value in data set [4] (BID oral dosing, fed state) lay in the range of 3 to 4 days. For the same compound, in data set [4] (MAD), the “increase in dose over which AUCtau can be considered dose proportional” value was ≤ 6.29 fold and the “increase in dose over which Cmax,ss can be considered dose proportional” value is listed as “up to 2.12 fold”. Further, the “accumulation to steady state” value in data set [4] (all higher doses (above 5 mg qd)) is ≤ 1.4 fold. The “mean Racc, day 1” value in data set [4] (day 1 of the bid regimen) was 1.09-1.29. Moreover, the “mean accumulation to steady state” value in data set [4] (lowest dose of 5 mg qd) is given as 2.1 fold. For the same compound, in data set [4] (morning pre-dose concentrations, MAD), the “time at which steady state is achieved” value is ~3 days. Moreover, the “dose proportionality criteria for AUCtau” value in data set [4] (steady state, 5 mg qd to 40 mg bid) is given as “met”. For the same compound, the “mean concentration in blister fluid” value in the data set “clinical” (Part 2, 15 mg qd) was 4.62 ng/mL. In addition, the “mean concentration in blister fluid” value in “clinical” (Part 2, 80 mg bid) is reported as 233 ng/mL. Also, in “clinical” (human, in vivo, 30 mg), the Kp at 24 h is 0.14 and the concentration at 24 h stood at 4.67 ng/mL. The “suppression of LTB4 in human skin blister fluids” value in data set [5] was found to be 90%. Further, in data set [6] (40 mg daily dose (20 mg BID)), the “suppression of LTB4 in blood at steady state” value is given as “nearly complete suppression”. Further, the “blood cell stimulated LTB4 release, reduction from baseline” value in data set [6] (SAD 5 mg, at 24 hours) is listed as 25-50%.

What is called Tmax is the time at which the peak concentration occurs. For orientation: half-life means the time needed for the level to fall by half in the phase considered.
